“Also recorded” adds a separate entry of the source.
Tests used:
[1] = target: CYP2E1 (Homo sapiens, UniProt P05181); test: CYP inhibition in vitro; format: in vitro ADME
[2] = Phase 1 Part 1 (SAD) plasma PK incl. food effect; format: in vivo, human; conditions: for AUC0-24, geometric least-squares mean / AUC0-inf, geometric least-squares mean / AUC0-last, geometric least-squares mean / Cmax, geometric least-squares mean: 15 mg single dose; for AUC0-24 / AUC0-inf / AUC0-last / Cmax / Tmax / t1/2: Part 1 SAD; for AUC0-24 / AUC0-inf / AUC0-last / Cmax: geometric mean (CV%); for Tmax / t1/2: median
Procedure: Four sequential SAD cohorts were dosed.
Escalation to the next higher dose level in Part 1 occurred only after satisfactory review of clinical safety and pharmacokinetic data. […] Subjects received the same study drug and dose (Compound A or placebo) in both dosing periods.
For each cohort of Part 1, the daily dose of study drug was administered as a single dose (1 time daily or QD). In Part 1 of the study, following a screening period to determine eligibility, subjects in each cohort entered the Phase 1 clinical research unit (CRU) on the afternoon of Day −1. Study eligibility was re-confirmed upon admission to the CRU, and subjects remained in the CRU overnight prior to dosing on Day 1. Following Day 1, subjects remained in the CRU for an additional 72 hours post-dose (i.e., discharge on Day 4) to enable collection of plasma and urine for PK samples and other study assessments. Subjects were discharged from the CRU following plasma PK sample collection on Day 4 and returned on Day 16 (+2 days) for a final follow-up visit.
Serial venous blood samples were withdrawn via an indwelling cannula or by venipuncture according to the schedule in Tables 4 and 5 for Parts 1 and 2, respectively. Samples were collected into 4 mL lithium heparin tubes. The acceptable deviations from the nominal blood sampling times in Part 1 and Part 2 are as follows: the pre-dose blood sample will be taken ≤1 hour before dosing; 0 to 1 hour post-dose samples will be taken within +2 minutes of the nominal post-dose sampling time; >1 to 12 hours post-dose samples will be taken within +10 minutes of the nominal post-dose sampling time; and >12 hours post-dose samples will be taken within +30 minutes of the nominal post-dose sampling time if subjects are resident in the clinic. […]
In all derivations of PK parameters, 0 will be substituted for concentrations below the quantification limit (BQL) of the assay. Samples that are BQL but are between 2 samples with detectable concentrations will be excluded from PK analysis.
Dose proportionality was evaluated over all fasted doses within a study part based upon AUC0-inf (Part 1), AUCtau (Part 2), AUC0-t, and Cmax using the power model. The analysis was performed for Day 1 (Parts 1 and 2) and Day 7 (Part 2).
Dose proportionality for PK parameters was assessed by restricted maximum likelihood using SAS PROC MIXED (SAS STAT software, Cary N.C.). The mean slope was estimated from the power model and the corresponding 90% confidence interval (CI) calculated. Dose proportionality was also examined using an analysis of variance (ANOVA) method, where PK parameters for each dose were compared with a reference dose on a pair-wise basis. The ratio of geometric least squares (GLS) means and the corresponding 90% CI was estimated for each PK parameter of interest.
Mixed-effects models were constructed with treatment fitted as a fixed effect and subject fitted as a random effect to provide point estimates for the ratios of PK parameters under fed relative to fasted conditions and their associated 90% CI.

[3] = Phase 1 Parts 1 and 2 Holter ECG pharmacodynamics / exposure-response; format: in vivo, human
Procedure: ECGs were obtained according to the schedule in Tables 4 and 5 for Parts 1 and 2, respectively. A standard bedside 12-lead ECG machine or telemetry system that calculates HR and measures the PR, QRS, QT, RR, and QTc (QTcF) intervals was used. The acceptable deviations from the nominal ECG measurement time points were: re-dose: ≤2 hours before dosing; post dose: ±15 minutes from the nominal post-dose time point; and discharge: ±1 hour from the nominal time point.
Where possible, Holter-obtained and adjudicated ECGs were used to determine the change from baseline in mean differences in QTcF between each active treatment chosen to be analyzed relative to that obtained on subjects receiving placebo within a study part (for Part 2, within each cohort). At each time point Holter ECGs are analyzed, an individual subject's change from baseline will be calculated as:
Δik=(QTcF for subject I at time point k−Baseline QTcF), where QTcF measurements will be the average of triplicate ECGs at each time point. Baseline QTcF is the average of all pre-dose values.

[4] = target: T1, CYP2C8 (Homo sapiens, UniProt P10632); test: CYP inhibition in vitro; format: in vitro ADME
T1 sequence (P10632 1-490): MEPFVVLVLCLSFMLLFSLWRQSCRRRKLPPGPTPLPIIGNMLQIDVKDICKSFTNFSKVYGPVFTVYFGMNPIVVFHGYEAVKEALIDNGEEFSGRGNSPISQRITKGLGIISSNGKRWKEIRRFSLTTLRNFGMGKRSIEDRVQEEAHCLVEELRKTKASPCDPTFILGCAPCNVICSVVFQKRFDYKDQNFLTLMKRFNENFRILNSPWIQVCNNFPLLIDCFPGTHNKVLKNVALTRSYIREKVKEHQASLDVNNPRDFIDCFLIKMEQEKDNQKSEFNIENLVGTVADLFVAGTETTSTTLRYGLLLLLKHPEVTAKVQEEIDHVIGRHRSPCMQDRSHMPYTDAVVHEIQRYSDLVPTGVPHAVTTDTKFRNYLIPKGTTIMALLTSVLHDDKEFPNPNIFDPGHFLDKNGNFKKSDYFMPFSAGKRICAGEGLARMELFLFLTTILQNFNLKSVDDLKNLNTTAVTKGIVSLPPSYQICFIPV

[5] = Part 1 cohort 4, 15 mg single dose
[6] = Parts 1 and 2, model included placebo

Chain of CYP2E1 (P05181 whole entry): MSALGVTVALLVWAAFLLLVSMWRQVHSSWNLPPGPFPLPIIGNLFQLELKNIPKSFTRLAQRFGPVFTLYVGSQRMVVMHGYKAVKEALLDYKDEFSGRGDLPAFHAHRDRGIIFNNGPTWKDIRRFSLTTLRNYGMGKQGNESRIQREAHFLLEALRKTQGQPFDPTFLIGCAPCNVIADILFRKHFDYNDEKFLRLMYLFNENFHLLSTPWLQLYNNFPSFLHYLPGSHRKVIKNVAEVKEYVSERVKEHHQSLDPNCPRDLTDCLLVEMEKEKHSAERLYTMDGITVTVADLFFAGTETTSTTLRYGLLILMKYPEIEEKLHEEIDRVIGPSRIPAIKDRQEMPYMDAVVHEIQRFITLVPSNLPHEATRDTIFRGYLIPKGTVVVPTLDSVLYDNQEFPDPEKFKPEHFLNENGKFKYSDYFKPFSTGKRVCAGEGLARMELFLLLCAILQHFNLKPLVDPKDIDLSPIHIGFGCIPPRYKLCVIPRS

- CYP2E1 inhibition [1]: not an inhibitor
- AUC0-24, geometric least-squares mean ([2]; fasted): 1975,63 ng · h/mL
- AUC0-inf, geometric least-squares mean ([2]; fasted): 2075.34 ng·h/mL
- AUC0-last, geometric least-squares mean ([2]; fasted): 2019.55 ng·h/mL
- Cmax, geometric least-squares mean ([2]; fasted): 272.80 ng/mL
- AUC0-24, geometric least-squares mean ([2]; fed): 1742.05 ng·h/mL
- AUC0-inf, geometric least-squares mean ([2]; fed): 2087.05 ng·h/mL
- AUC0-last, geometric least-squares mean ([2]; fed): 2015.24 ng·h/mL
- Cmax, geometric least-squares mean ([2]; fed): 199.50 ng/mL
- median time to maximum concentration (Tmax) ([2]; Part 1, all fasted cohorts): approximately 2 hours
- AUC0-24 ([2]; 5 mg single oral dose, fasted): 686.9 (30.7) ng · h/mL
- AUC0-inf ([2]; 5 mg single oral dose, fasted): 755.7 (29.9) ng · h/mL
- AUC0-last ([2]; 5 mg single oral dose, fasted): 717.0 (31.3) ng · h/mL
- Cmax ([2]; 5 mg single oral dose, fasted): 94.24 (45.2) ng/mL
- Tmax ([2]; 5 mg single oral dose, fasted): 2.011 h
- t1/2 ([2]; 5 mg single oral dose, fasted): 6.833 h
- AUC0-24 ([2]; 10 mg single oral dose, fasted): 1545 (18.9) ng · h/mL
- AUC0-inf ([2]; 10 mg single oral dose, fasted): 1662 (17.3) ng · h/mL
- AUC0-last ([2]; 10 mg single oral dose, fasted): 1579 (18.8) ng · h/mL
- Cmax ([2]; 10 mg single oral dose, fasted): 234.3 (26.1) ng/mL
- Tmax ([2]; 10 mg single oral dose, fasted): 2.013 h
- t1/2 ([2]; 10 mg single oral dose, fasted): 5.753 h
- AUC0-24 ([2]; 15 mg single oral dose, fasted): 1976 (16.6) ng · h/mL
- AUC0-inf ([2]; 15 mg single oral dose, fasted): 2214 (24.3) ng · h/mL
- AUC0-last ([2]; 15 mg single oral dose, fasted): 2178 (24.8) ng · h/mL
- Cmax ([2]; 15 mg single oral dose, fasted): 272.8 (42.5) ng/mL
- Tmax ([2]; 15 mg single oral dose, fasted): 2.009 h
- t1/2 ([2]; 15 mg single oral dose, fasted): 7.639 h
- AUC0-24 ([2]; 15 mg single oral dose, fed): 1742 (17.6) ng · h/mL
- AUC0-inf ([2]; 15 mg single oral dose, fed): 1978 (21.4) ng · h/mL
- AUC0-last ([2]; 15 mg single oral dose, fed): 1898 (24.3) ng · h/mL
- Cmax ([2]; 15 mg single oral dose, fed): 199.5 (41.2) ng/mL
- Tmax ([2]; 15 mg single oral dose, fed): 4.023 h
- t1/2 ([2]; 15 mg single oral dose, fed): 6.688 h
- AUC0-24 ([2]; 25 mg single oral dose, fasted): 3188 (14.2) ng · h/mL
- AUC0-inf ([2]; 25 mg single oral dose, fasted): 3517 (17.0) ng · h/mL
- AUC0-last ([2]; 25 mg single oral dose, fasted): 3475 (17.8) ng · h/mL
- Cmax ([2]; 25 mg single oral dose, fasted): 474.1 (37.1) ng/mL
- Tmax ([2]; 25 mg single oral dose, fasted): 2.071 h
- t1/2 ([2]; 25 mg single oral dose, fasted): 7.502 h
- GLSM AUC0-last and GLSM AUC0-inf fasted vs. fed [2, 5]: approximately equivalent
- Tmax, median of paired differences (95% CI) fed vs. fasted [2, 5]: 2.00 (0.99, 10.00)
- decrease of GLSM AUC0-24 after high-fat meal vs fasted [2, 5]: 12%
- decrease of GLSM Cmax after high-fat meal vs fasted [2, 5]: 27%
- CYP2C8 inhibition [4]: is an inhibitor
SMILES: COc1cc(-n2cnc(Nc3nc(N4CCC[C@H]4C(N)=O)nc4sccc34)c2)cc(OC)c1OC.O=C(O)CC(O)(CC(=O)O)C(=O)O [Compound A]
- detectability in plasma ([2]; Part 1, all cohorts except cohort 1 (5 mg dose)): remained detectable over the entire 72-hour data collection period
- dose proportionality of plasma exposure ([2]; Part 1, single oral doses 5 to 25 mg, healthy subjects): exhibits dose proportionality; also recorded: approximately linear and dose proportional
- dose proportionality of single dose Cmax ([2]; Part 1 single ascending oral dose cohorts (FIG. 2)): approximately linear and dose-proportional
- dose proportionality of single dose AUC0-24 ([2]; Part 1 single ascending oral dose cohorts (FIG. 3)): approximately linear and dose-proportional
- slope of ΔQTcF-concentration model ([3]; Parts 1 and 2): 0.0002
- ΔQTcF-concentration model fit line and confidence boundaries ([3]; Parts 1 and 2): below 10 msec
- slope of ΔHR-concentration model [3, 6]: 0.0004
- slope of ΔPR-concentration model [3, 6]: −0.0033
- slope of ΔQRS-concentration model [3, 6]: 0.0004
- model predicted HR changes ([3]; at all concentrations): < 1 bpm
- model predicted PR changes ([3]; at all concentrations): less than 2 msec
- effect on the ECG (12-lead Holter monitoring) ([3]; single doses up to 25 mg and multiple daily doses over 7 days up to 20 mg): absence of a clinically significant effect
